Where two headings read alike, the source gives them in different places.
Legend:
[1] = molecular target: T1, K-Ras G12S (Homo sapiens, UniProt P01116, G12S); experiment: HTRF assay of the K-Ras / SOS1 interaction; assay type: biochemical; conditions: IC50 (against K-Ras G12D) to IC50 (against K-Ras G12S)
T1 construct: made in house; host or cells: E. coli (e.g., BL21 (DE3))
In short: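 GST-K-Ras G12S with anti-GST-Eu donor and His-hSOS1 with anti-6His-XL665 acceptor in ~5 mM HEPES pH 7.4, ~150 mM NaCl, 1 mM DTT, 0.05% BSA, 0.0025% Igepal. Read after ~10 min or longer; IC50 from 665/620 nm ratio, duplicates at 10 µM down to 0.01 µM.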

[2] = system: GP2D cells; experiment: Cell proliferation assay (CellTiter-Glo), K-Ras G12D cells; assay type: cell-based; conditions: GP2D cells (K-Ras G12D); read-out: Inhibition of GP2D Cells (IC50)
In short: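 GP2D (K-Ras G12D) cells seeded in DMEM with 2 mM glutamine and 10% FBS, then dosed next day with a dilution series (e.g., 9-point 3-fold). Viability read by CellTiter-Glo luminescence after about 5 days. IC50 from four-parameter fit.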

[3] = system: A549 cells; experiment: Cell proliferation assay (CellTiter-Glo), K-Ras G12S cells; assay type: cell-based; conditions: for IC50: Homo sapiens, A549, A549 cells (K-Ras G12S), read-out: Inhibition of A549 Cells (IC50); for ratio of IC50 against a G12D cell line to IC50 against a G12S cell line: K-Ras G12D cell line such as GP2D relative to K-Ras G12S cell line such as A549, greater than 1, 2, 3, 4, 5, 10, 15 or even greater, 8640 min
Experimental: A549 (ATCC CRL-185) and LS123 (ATCC CRL-255) cell lines comprise a G12S mutation and can be used to assess Ras cellular signaling in vitro, e.g., in response to the compounds herein. A549 culture medium is prepared with RPMI-1640 and 10% heat-inactivated FBS. LS123 culture medium is prepared with RPMI-1640 and 10% heat-inactivated FBS. A CellTiter-Glo (CTG) luminescent based assay (Promega) is used to assess growth of the cells, as a measurement of the ability of the compounds herein to inhibit Ras signaling in the cells. The cells (e.g., 800 per well) are seeded in their respective culture medium in standard tissue culture-treated 384-well format plates (Falcon #08-772-116) or ultra-low attachment surface 384-well format plates (S-Bio # MS-9384WZ). The day after plating, cells are treated with a dilution series (e.g., a 10 point 3-fold dilution series) of the compounds herein (e.g., approximately 40 µl final volume per well). Cell viability can be monitored (e.g., approximately 6 days later) according to the manufacturer's recommended instructions, where the CellTiter-Glo reagent is added (e.g., approximately 10 µl), vigorously mixed, covered, and placed on a plate shaker (e.g., approximately for 20 min) to ensure sufficient cell lysis prior to assessment of luminescent signal. The IC50 values are determined using the four parameter fit. The resulting IC50 value is a measurement of the ability of the compounds herein to reduce cell growth of Ras-driven cells (e.g., tumor cell lines) in vitro and/or in vivo.

T1 sequence (P01116 1-188 isoform P01116-2 G12S): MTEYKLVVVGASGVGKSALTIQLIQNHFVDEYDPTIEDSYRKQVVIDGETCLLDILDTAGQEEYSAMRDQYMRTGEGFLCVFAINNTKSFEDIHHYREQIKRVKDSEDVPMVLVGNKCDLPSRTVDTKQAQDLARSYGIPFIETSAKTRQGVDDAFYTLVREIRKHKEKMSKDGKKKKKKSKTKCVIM

IC50 ([3]; bin ≤ 500 nM) [µM]	ratio of IC50 against a G12D cell line to IC50 against a G12S cell line [3]	IC50 ([3]; bin 500 nM to 5 µM) [µM]	Compound	Ratio of IC50 KRAS G12D vs. IC50 KRAS G12S [1]	IC50 [2] [µM]
≤ 0.5	greater than 1	–	N#Cc1c(N)sc2c(F)ccc(-c3c(Cl)cc4c(N5CCCC6C5CCN6C(=O)n5cncn5)nc(OC[C@@]56CCCN5C[C@H](F)C6)nc4c3F)c12 (stereo partly drawn) [Compound A184, 4-(4-(1-(1H-1,2,4-triazole-1-carbonyl)octahydro-4H-pyrrolo[3,2-b]pyridin-4-yl)-6-chloro-8-fluoro-2-(((2R,7aS)-2-fluorotetrahydro-1H-pyrrolizin-7a(5H)-yl)methoxy)quinazolin-7-yl)-2-amino-7-fluorobenzo[b]thiophene-3-carbonitrile]	A (A: indicates that the ratio of IC50 against KrasG12D vs. IC50 against KrasG12S is 1-fold or greater)	≤ 1
≤ 0.5	greater than 1	–	N#Cc1c(N)sc2c(F)ccc(-c3c(Cl)cc4c(N5CCC6CN(C(=O)Nc7ncccn7)CCC65)nc(OC[C@@]56CCCN5C[C@H](F)C6)nc4c3F)c12 (stereo partly drawn) [Compound A251, 1-(7-(2-amino-3-cyano-7-fluorobenzo[b]thiophen-4-yl)-6-chloro-8-fluoro-2-(((2R,7aS)-2-fluorotetrahydro-1H-pyrrolizin-7a(5H)-yl)methoxy)quinazolin-4-yl)-N-(pyrimidin-2-yl)octahydro-5H-pyrrolo[3,2-c]pyridine-5-carboxamide]	–	1 to 10
≤ 0.5	greater than 1	–	Cc1nc(C(C)C)nn1C(=O)N1CC2(CCCCN(c3nc(OC[C@@]45CCCN4C[C@H](F)C5)nc4c(F)c(-c5ccc(F)c6sc(N)c(C#N)c56)c(Cl)cc34)C2)C1 [Compound A305, 2-amino-4-(6-chloro-8-fluoro-2-(((2R,7aS)-2-fluorotetrahydro-1H-pyrrolizin-7 a(5H)-yl)methoxy)-4-(2-(3-isopropyl-5-methyl-1H-1,2,4-triazole-1-carbonyl)-2,6-diazaspiro[3.6]decan-6-yl)quinazolin-7-yl)-7-fluorobenzo[b]thiophene-3-carbonitrile]	–	1 to 10
≤ 0.5	–	–	Cc1ncn(C(=O)N2CC3CN(c4nc(OC[C@@]56CCCN5C[C@H](F)C6)nc5c(F)c(-c6ccc(F)c7sc(N)c(C#N)c67)c(Cl)cc45)CC32)n1 (stereo partly drawn) [Compound A196, 2-amino-4-(6-chloro-8-fluoro-2-(((2R,7aS)-2-fluorotetrahydro-1H-pyrrolizin-7 a(5H)-yl)methoxy)-4-(6-(3-methyl-1H-1,2,4-triazole-1-carbonyl)-3,6-diazabicyclo[3.2.0]heptan-3-yl)quinazolin-7-yl)-7-fluorobenzo[b]thiophene-3-carbonitrile]	–	≤ 1
≤ 0.5	–	–	Cc1nc(C)n(C(=O)N2CC3(CCCCN(c4nc(OC[C@@]56CCCN5C[C@H](F)C6)nc5c(F)c(-c6ccc(F)c7sc(N)c(C#N)c67)c(Cl)cc45)C3)C2)n1 [Compound A116, 2-amino-4-(6-chloro-4-(2-(3,5-dimethyl-1H-1,2,4-triazole-1-carbonyl)-2,6-diazaspiro[3.6]decan-6-yl)-8-fluoro-2-(((2R,7aS)-2-fluorotetrahydro-1H-pyrrolizin-7a(5H)-yl)methoxy)quinazolin-7-yl)-7-fluorobenzo[b]thiophene-3-carbonitrile]	–	≤ 1
–	–	0.5 to 5	Nc1nc2c(-c3c(Cl)cc4c(N5CC6CN(C(=O)n7cncn7)C6C5)nc(OC[C@@]56CCCN5C[C@H](F)C6)nc4c3F)ccc(F)c2s1 (stereo partly drawn) [Compound A177, (3-(7-(2-amino-7-fluorobenzo[d]thiazol-4-yl)-6-chloro-8-fluoro-2-(((2R,7aS)-2-fluorotetrahydro-1H-pyrrolizin-7a(5H)-yl)methoxy)quinazolin-4-yl)-3,6-diazabicyclo[3.2.0]heptan-6-yl)(1H-1,2,4-triazol-1-yl)methanone]	–	≤ 1
–	–	0.5 to 5	N#Cc1c(N)sc2c(F)ccc(-c3c(Cl)cc4c(N5CC6CN(C(=O)n7cncn7)C6C5)nc(OC[C@@]56CCCN5C[C@H](F)C6)nc4c3F)c12 (stereo partly drawn) [Compound A306, 4-(4-(6-(1H-1,2,4-triazole-1-carbonyl)-3,6-diazabicyclo[3.2.0]heptan-3-yl)-6-chloro-8-fluoro-2-(((2R,7aS)-2-fluorotetrahydro-1H-pyrrolizin-7a(5H)-yl)methoxy)quinazolin-7-yl)-2-amino-7-fluorobenzo[b]thiophene-3-carbonitrile]	–	≤ 1
–	–	0.5 to 5	N#Cc1c(N)sc2c(F)ccc(-c3c(Cl)cc4c(N5CCC6CN(C(=O)Nc7ncccn7)CCC65)nc(OC[C@@]56CCCN5C[C@H](F)C6)nc4c3F)c12 (single isomer, unassigned) [Compound A271]	A (A: indicates that the ratio of IC50 against KrasG12D vs. IC50 against KrasG12S is 1-fold or greater)	–

Compound	IC50 ([3]; bin ≤ 500 nM) [µM]	ratio of IC50 against a G12D cell line to IC50 against a G12S cell line [3]	IC50 ([3]; bin 500 nM to 5 µM) [µM]	Ratio of IC50 KRAS G12D vs. IC50 KRAS G12S [1]	IC50 [2] [µM]
Nc1nc2c(-c3c(Cl)cc4c(N5CC6CCC(C5)N6C(=O)n5cncn5)nc(OC[C@@]56CCCN5C[C@H](F)C6)nc4c3F)ccc(F)c2s1 [Compound A111, (3-(7-(2-amino-7-fluorobenzo[d]thiazol-4-yl)-6-chloro-8-fluoro-2-(((2R,7aS)-2-fluorotetrahydro-1H-pyrrolizin-7a(5H)-yl)methoxy)quinazolin-4-yl)-3,8-diazabicyclo[3.2.1]octan-8-yl)(1H-1,2,4-triazol-1-yl)methanone]	–	–	0.5 to 5	A (A: indicates that the ratio of IC50 against KrasG12D vs. IC50 against KrasG12S is 1-fold or greater)	≤ 1
C#Cc1c(F)ccc2cc(O)cc(-c3ncc4c(N5CC6CCC(C5)N6C(=O)n5cc(C#N)cn5)nc(OC[C@@]56CCCN5C[C@H](F)C6)nc4c3F)c12 [Compound A143, 1-(3-(7-(8-ethynyl-7-fluoro-3-hydroxynaphthalen-1-yl)-8-fluoro-2-(((2R,7aS)-2-fluorotetrahydro-1H-pyrrolizin-7a(5H)-yl)methoxy)pyrido[4,3-d]pyrimidin-4-yl)-3,8-diazabicyclo[3.2. 1]octane-8-carbonyl)-1H-pyrazole-4-carbonitrile]	≤ 0.5	–	–	–	≤ 1
N#Cc1c(N)sc2c(F)ccc(-c3c(Cl)cc4c(N5CC6CCC(C5)N6C(=O)n5ccnc5)nc(OC[C@@]56CCCN5C[C@H](F)C6)nc4c3F)c12 [Compound A105, 4-(4-(8-(1H-imidazole-1-carbonyl)-3,8-diazabicyclo[3.2.1]octan-3-yl)-6-chloro-8-fluoro-2-(((2R,7aS)-2-fluorotetrahydro-1H-pyrrolizin-7a(5H)-yl)methoxy)quinazolin-7-yl)-2-amino-7-fluorobenzo[b]thiophene-3-carbonitrile]	≤ 0.5	–	–	–	≤ 1
N#Cc1c(N)sc2c(F)ccc(-c3c(Cl)cc4c(N5CC6CCC(C5)N6C(=O)Nc5ncccn5)nc(OC[C@@]56CCCN5C[C@H](F)C6)nc4c3F)c12 [Compound A215, 3-(7-(2-amino-3-cyano-7-fluorobenzo[b]thiophen-4-yl)-6-chloro-8-fluoro-2-(((2R,7aS)-2-fluorotetrahydro-1H-pyrrolizin-7a(5H)-yl)methoxy)quinazolin-4-yl)-N-(pyrimidin-2-yl)-3,8-diazabicyclo[3.2. 1]octane-8-carboxamide]	≤ 0.5	–	–	–	≤ 1
N#Cc1cnn(C(=O)N2C3CCC2CN(c2nc(OC[C@@]45CCCN4C[C@H](F)C5)nc4c(F)c(-c5ccc(F)c6sc(N)nc56)c(Cl)cc24)C3)c1 [Compound A253, 1-(3-(7-(2-amino-7-fluorobenzo[d]thiazol-4-yl)-6-chloro-8-fluoro-2-(((2R,7aS)-2-fluorotetrahydro-1H-pyrrolizin-7a(5H)-yl)methoxy)quinazolin-4-yl)-3,8-diazabicyclo[3.2. 1]octane-8-carbonyl)-1H-pyrazole-4-carbonitrile]	–	–	0.5 to 5	–	≤ 1

From patent publication EP4389751A1, “HETEROCYCLIC COMPOUNDS AND USES THEREOF” (Kumquat Biosciences Inc., priority 2021, dated 2024)
